These results are taken from patent US9815796B2 (Merck Sharp & Dohme Corp., priority 2013, dated 2017).

One test addresses Rhesus PDE2A3 (Macaca mulatta, UniProt B3VTJ2). Nature of the test: PDE2 fluorescence polarization (IMAP FP) inhibition assay, rhesus enzyme. Format: biochemical, rhesus macaque. The method, boiled down:
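IMAP FP (mP from parallel and perpendicular fluorescence against substrate-only control) was read ≥1 h after adding binding reagent. The preceding 60 min room-temperature reaction contained FAM-cAMP (50 nM) and cGMP (1 uM) in pH 7.2 Tris buffer with MgCl2 and DTT. Enzyme was supernatant of sonicated AD293 cells expressing rhesus PDE2A3; compounds were 3-fold titrated, DMSO 1% final.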
(In general: Polarisation of emitted light reports the rotation of a fluorescent probe.)

Another test addresses human PDE2A1 (Homo sapiens (Human), UniProt O00408). The test can be described thus: IMAP FP PDE selectivity panel, human PDE2A1. It counts as biochemical. The method in brief:
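IMAP FP format: substrate 50 nM FAM-cAMP plus 1000 nM cGMP, enzyme (insect-cell GST-tagged human PDE2A1) at ~20% conversion, 60 min reaction at room temperature. Apparent inhibition constants calculated from parallel/perpendicular fluorescence with KM 10,000 nM.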

Setting [1] is: Rhesus PDE2, Lab A, read-out: Rhesus PDE2 Ki (nM) - Lab A.
[2] abbreviates: Human PDE2, Lab A, read-out: Human PDE2 Ki (nM) - Lab A.
[3] abbreviates: Rhesus PDE2, Lab B, read-out: Rhesus PDE2 Ki (nM) - Lab B.
The mark [4] stands for this setting: Human PDE2, Lab B, read-out: Human PDE2 Ki (nM) - Lab B.

Where two headings read alike, the source gives them in different places.

human PDE2A1, sequence (O00408 other isoform, or with tags, fused parts or gaps): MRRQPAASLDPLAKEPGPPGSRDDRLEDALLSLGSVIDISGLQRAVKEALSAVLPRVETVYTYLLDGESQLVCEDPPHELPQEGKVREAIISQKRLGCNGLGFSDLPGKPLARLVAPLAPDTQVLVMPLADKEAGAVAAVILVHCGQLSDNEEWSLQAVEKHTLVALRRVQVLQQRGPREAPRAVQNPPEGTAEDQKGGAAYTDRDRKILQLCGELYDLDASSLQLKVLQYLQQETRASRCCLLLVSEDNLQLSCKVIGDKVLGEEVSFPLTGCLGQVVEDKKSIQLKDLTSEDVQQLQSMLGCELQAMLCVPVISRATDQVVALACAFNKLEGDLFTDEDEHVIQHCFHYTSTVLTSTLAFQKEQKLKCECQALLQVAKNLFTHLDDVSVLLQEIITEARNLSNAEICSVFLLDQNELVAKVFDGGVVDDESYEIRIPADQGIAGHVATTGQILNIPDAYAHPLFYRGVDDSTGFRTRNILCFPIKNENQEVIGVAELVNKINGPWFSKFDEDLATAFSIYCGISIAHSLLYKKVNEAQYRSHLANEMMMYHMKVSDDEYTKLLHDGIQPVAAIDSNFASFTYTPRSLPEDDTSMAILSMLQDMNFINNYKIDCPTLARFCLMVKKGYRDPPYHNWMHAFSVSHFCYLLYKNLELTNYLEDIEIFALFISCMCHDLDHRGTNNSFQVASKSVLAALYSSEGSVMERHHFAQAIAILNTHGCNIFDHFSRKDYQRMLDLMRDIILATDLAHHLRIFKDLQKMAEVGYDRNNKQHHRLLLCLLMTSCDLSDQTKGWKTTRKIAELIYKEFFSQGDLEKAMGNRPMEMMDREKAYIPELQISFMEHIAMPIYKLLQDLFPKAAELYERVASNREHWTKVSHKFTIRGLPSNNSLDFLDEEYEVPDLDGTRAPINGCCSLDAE
Rhesus PDE2A3, sequence (B3VTJ2 1-941): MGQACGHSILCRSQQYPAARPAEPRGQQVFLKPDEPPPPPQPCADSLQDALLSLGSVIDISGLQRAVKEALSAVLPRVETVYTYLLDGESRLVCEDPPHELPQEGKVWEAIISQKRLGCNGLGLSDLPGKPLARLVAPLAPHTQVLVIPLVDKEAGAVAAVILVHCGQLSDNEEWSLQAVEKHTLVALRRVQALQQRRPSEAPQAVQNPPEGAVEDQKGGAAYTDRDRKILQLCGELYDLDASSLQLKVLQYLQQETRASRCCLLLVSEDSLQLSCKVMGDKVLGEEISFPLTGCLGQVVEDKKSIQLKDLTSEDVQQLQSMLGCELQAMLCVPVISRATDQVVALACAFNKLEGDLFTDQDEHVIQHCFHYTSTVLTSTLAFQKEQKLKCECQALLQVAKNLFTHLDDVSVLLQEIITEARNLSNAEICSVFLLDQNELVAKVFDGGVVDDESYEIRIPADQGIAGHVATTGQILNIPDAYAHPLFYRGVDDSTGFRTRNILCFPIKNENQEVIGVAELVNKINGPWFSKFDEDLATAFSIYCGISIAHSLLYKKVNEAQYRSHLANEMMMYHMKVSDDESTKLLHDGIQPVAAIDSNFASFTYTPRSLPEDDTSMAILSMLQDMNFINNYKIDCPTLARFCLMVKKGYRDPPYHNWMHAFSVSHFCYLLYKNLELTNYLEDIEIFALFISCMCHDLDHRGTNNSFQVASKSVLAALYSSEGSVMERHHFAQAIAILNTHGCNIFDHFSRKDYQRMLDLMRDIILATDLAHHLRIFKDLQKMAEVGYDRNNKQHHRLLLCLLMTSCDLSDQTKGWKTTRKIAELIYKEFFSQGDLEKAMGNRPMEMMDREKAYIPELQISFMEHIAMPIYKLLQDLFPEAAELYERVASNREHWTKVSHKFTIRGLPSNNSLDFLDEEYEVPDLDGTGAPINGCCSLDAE

For the compound `Cc1nc(C(=O)N[C@@H](c2ccc(OC(F)(F)F)cc2)C(C)C)cc(=O)[nH]1` [Example 32, 2-methyl-N-{(1R)-2-methyl-1-[4-(trifluoromethoxy)phenyl]propyl}-6-oxo-1,6-dihydropyrimidine-4-carboxamide], the figures for the Ki at Rhesus PDE2A3 (setting [1]) and at human PDE2A1 (setting [2]) were 11 nM and 5.1 nM, respectively.

In the case of `Cc1nc(C(=O)N[C@@H](c2ccc(C(C)C)cc2)C2(C)CC2)cc(=O)[nH]1` [Example 427, 2-methyl-N-{(R)-(1-methylcyclopropyl)[4-(1-methylethyl)phenyl]methyl}-6-oxo-1,6-dihydropyrimidine-4-carboxamide], the Ki at Rhesus PDE2A3 (setting [3]) and at human PDE2A1 (setting [4]) was 3.7 nM each time.

For `Cc1nc(C(=O)N[C@H](C)c2ccc(OC(F)(F)F)cc2F)cc(=O)[nH]1` [Example 21, N-{(1R)-1-[2-fluoro-4-(trifluoromethoxy)phenyl]ethyl}-2-methyl-6-oxo-1,6-dihydropyrimidine-4-carboxamide], the Ki (in general, a dissociation constant, usually derived from enzyme kinetics or from competition with a known ligand) at Rhesus PDE2A3 (setting [1]) was 46 nM; at human PDE2A1 (setting [2]), 98 nM.

Take `CC1Cc2cc(C(C)NC(=O)c3cc(=O)[nH]c(-c4ccccc4)n3)ccc2O1` (centres unmarked) [Example 379, N-[1-(2-methyl-2,3-dihydro-1-benzofuran-5-yl)ethyl]-6-oxo-2-phenyl-1,6-dihydropyrimidine-4-carboxamide]: the figures for the Ki at Rhesus PDE2A3 (setting [1]) and on human PDE2A1 (setting [4]) were 69 nM and 114 nM, respectively.

As for `Cc1nc(C(=O)N[C@@H](c2ccc(OC(F)F)cc2)C2CC2)cc(=O)[nH]1` [Example 610, N-{(R)-cyclopropyl[4-(difluoromethoxy)phenyl]methyl}-2-methyl-6-oxo-1,6-dihydropyrimidine-4-carboxamide], the results for the Ki on Rhesus PDE2A3 (setting [3]) and on human PDE2A1 (setting [4]) were 68 nM and 70 nM, respectively.

For the compound `O=C(NC(CO)c1ccc(C(F)(F)F)cc1)c1cc(=O)[nH]c(C2CC2)n1` (centres unmarked) [Example 294, 2-cyclopropyl-N-{2-hydroxy-1-[4-(trifluoromethyl)phenyl]ethyl}-6-oxo-1,6-dihydropyrimidine-4-carboxamide], the results for the Ki on Rhesus PDE2A3 (setting [1]) and at human PDE2A1 (setting [2]) were 69 nM and 46 nM, respectively.

Consider `COc1cc(OC(F)(F)F)ccc1C(C)NC(=O)c1cc(=O)[nH]c(-c2ccccc2)n1` (centres unmarked) [Example 187, N-{1-[2-methoxy-4-(trifluoromethoxy)phenyl]ethyl}-6-oxo-2-phenyl-1,6-dihydropyrimidine-4-carboxamide], for which the Ki is 4.5 nM on Rhesus PDE2A3 (setting [1]) and 3.1 nM on human PDE2A1 (setting [2]).

`O=C(N[C@@H](c1ccc(OC(F)(F)F)c(F)c1)C1CC1)c1cc(=O)[nH]c(-c2ccccc2)n1` [Example 176]: the Ki was determined as 4.8 nM on Rhesus PDE2A3 (setting [1]) and 3.9 nM at human PDE2A1 (setting [2]).

As for `COc1ccc(Cc2nc(C(=O)N[C@@H](c3ccc(OC(F)(F)F)cc3)C(C)(C)C)cc(=O)[nH]2)cc1` [Example 467, N-{(1R)-2,2-dimethyl-1-[4-(trifluoromethoxy)phenyl]propyl}-2-(4-methoxybenzyl)-6-oxo-1,6-dihydropyrimidine-4-carboxamide], the Ki at Rhesus PDE2A3 (setting [3]) was 0.62 nM; on human PDE2A1 (setting [4]), 0.49 nM.

As to `CC(C)[C@@H](NC(=O)c1cc(=O)[nH]c(-c2ccccc2)n1)c1ccc(OC(F)(F)F)cc1` [Example 166, N-{(1R)-2-methyl-1-[4-(trifluoromethoxy)phenyl]propyl}-6-oxo-2-phenyl-1,6-dihydropyrimidine-4-carboxamide], the Ki at Rhesus PDE2A3 (setting [1]) is 3.3 nM; on human PDE2A1 (setting [2]), 2.1 nM.

Regarding `Cc1nc(C(=O)N[C@@H](c2ccc(C(F)(F)F)c(F)c2)C2CC2)cc(=O)[nH]1` [Example 68, N-{(R)-cyclopropyl[3-fluoro-4-(trifluoromethyl)phenyl]methyl}-2-methyl-6-oxo-1,6-dihydropyrimidine-4-carboxamide], the results for the Ki at Rhesus PDE2A3 (setting [1]) and on human PDE2A1 (setting [2]) were 26 nM and 17 nM, respectively.

In the case of `Cc1nc(C(=O)N[C@@H](c2ccc(C(F)(F)F)cc2)C2CC2)cc(=O)[nH]1` [Example 69, N-{(R)-cyclopropyl[4-(trifluoromethyl)phenyl]methyl}-2-methyl-6-oxo-1,6-dihydropyrimidine-4-carboxamide], the results for the Ki at Rhesus PDE2A3 (setting [1]) and at human PDE2A1 (setting [2]) were 23 nM and 18 nM, respectively.

As to `COc1ccc(C(C)(C)c2nc(C(=O)N[C@@H](c3ccc(C(F)(F)F)c(F)c3)C(C)(C)C)cc(=O)[nH]2)cc1` [Example 489, N-{(1R)-1-[3-fluoro-4-(trifluoromethyl)phenyl]-2,2-dimethylpropyl}-2-[1-(4-methoxyphenyl)-1-methylethyl]-6-oxo-1,6-dihydropyrimidine-4-carboxamide], the results for the Ki on Rhesus PDE2A3 (setting [3]) and on human PDE2A1 (setting [4]) were 69 nM and 61 nM, respectively.

As for `CC(NC(=O)c1cc(=O)[nH]c(-c2ccccc2)n1)c1ccc(-n2cncn2)cc1` (centres unmarked) [Example 363, 6-oxo-2-phenyl-N-{1-[4-(1H-1,2,4-triazol-1-yl)phenyl]ethyl}-1,6-dihydropyrimidine-4-carboxamide], the Ki was found to be 245 nM on Rhesus PDE2A3 (setting [1]), 356 nM at Rhesus PDE2A3 (setting [3]) and 354 nM at human PDE2A1 (setting [4]).

In the case of `CC[C@@H](NC(=O)c1cc(=O)[nH]c(COC)n1)c1ccc(OC(F)(F)F)c(F)c1` [Example 114, N-{(1R)-1-[3-fluoro-4-(trifluoromethoxy)phenyl]propyl}-2-(methoxymethyl)-6-oxo-1,6-dihydropyrimidine-4-carboxamide], the results for the Ki on Rhesus PDE2A3 (setting [1]) and on human PDE2A1 (setting [2]) were 48 nM and ~11 nM, respectively.

Regarding `Cc1nc(C(=O)N[C@H](C)c2ccc(-c3ccc(F)cc3)cc2)cc(=O)[nH]1` [Example 322, N-[(1R)-1-(4′-fluorobiphenyl-4-yl)ethyl]-2-methyl-6-oxo-1,6-dihydropyrimidine-4-carboxamide], the Ki is 205 nM at Rhesus PDE2A3 (setting [1]) and 171 nM on human PDE2A1 (setting [2]).

`C[C@@H](NC(=O)c1cc(=O)[nH]c(-c2ccccc2)n1)c1ccc(-c2ccccc2)cc1` [Example 279, N-[(1R)-1-biphenyl-4-ylethyl]-6-oxo-2-phenyl-1,6-dihydropyrimidine-4-carboxamide]: the Ki is 24 nM at Rhesus PDE2A3 (setting [1]) and 16 nM at human PDE2A1 (setting [2]).

Take `O=C(N[C@@H](c1ccc(C(F)(F)F)c(F)c1)C1CC1)c1cc(=O)[nH]c(-c2ncccn2)n1` [Example 91, N-{(R)-cyclopropyl[3-fluoro-4-(trifluoromethyl)phenyl]methyl}-6-oxo-1,6-dihydro-2,2′-bipyrimidine-4-carboxamide]: the inhibition constant Ki on Rhesus PDE2A3 (setting [1]) was 34 nM; at Rhesus PDE2A3 (setting [3]) it was 28 nM; on human PDE2A1 (setting [2]), ~9.8 nM; at human PDE2A1 (setting [4]), 33 nM.

On to `CC(C)(C)[C@@H](NC(=O)c1cc(=O)[nH]c(-c2ncccn2)n1)c1ccc(C(F)(F)F)cc1` [Example 255, N-{(1R)-2,2-dimethyl-1-[4-(trifluoromethyl)phenyl]propyl}-6-oxo-1,6-dihydro-2,2′-bipyrimidine-4-carboxamide], for which the Ki came to 3.7 nM at Rhesus PDE2A3 (setting [1]), 4.7 nM on Rhesus PDE2A3 (setting [3]) and 4.9 nM on human PDE2A1 (setting [4]).

Take `Cc1nc(C(=O)N[C@H](C)c2ccc(C(F)(F)F)c(F)c2)cc(=O)[nH]1` [Example 20, N-{(1R)-1-[3-fluoro-4-(trifluoromethyl)phenyl]ethyl}-2-methyl-6-oxo-1,6-dihydropyrimidine-4-carboxamide]: the Ki on Rhesus PDE2A3 (setting [1]) was 25 nM; on human PDE2A1 (setting [2]), 24 nM.

With `COc1ccc(Cc2nc(C(=O)N[C@@H](c3ccc(OC(F)(F)F)cc3)C(C)(C)C)cc(=O)[nH]2)cc1F` [Example 509, N-{(1R)-2,2-dimethyl-1-[4-(trifluoromethoxy)phenyl]propyl}-2-(3-fluoro-4-methoxybenzyl)-6-oxo-1,6-dihydropyrimidine-4-carboxamide], the Ki on Rhesus PDE2A3 (setting [3]) came to 0.88 nM; at human PDE2A1 (setting [4]), 0.99 nM.

In the case of `Cc1nc(C(=O)NC(C)(C)c2ccc(C(F)(F)F)cc2F)cc(=O)[nH]1` [Example 596, N-{1-[2-fluoro-4-(trifluoromethyl)phenyl]-1-methylethyl}-2-methyl-6-oxo-1,6-dihydropyrimidine-4-carboxamide], the Ki at Rhesus PDE2A3 (setting [3]) came out at 30 nM; on human PDE2A1 (setting [4]), 22 nM.

As for `O=C(N[C@@H](c1ccc(C2CC2)cc1)C1CC1)c1cc(=O)[nH]c(-c2ncccn2)n1` [Example 453, N-[(R)-cyclopropyl(4-cyclopropylphenyl)methyl]-6-oxo-1,6-dihydro-2,2′-bipyrimidine-4-carboxamide], the values for the Ki at Rhesus PDE2A3 (setting [3]) and on human PDE2A1 (setting [4]) were 7.3 nM and 7.6 nM, respectively.

Regarding `C[C@@H](NC(=O)c1cc(=O)[nH]cn1)c1ccc(C(F)(F)F)cc1` [Example 8, (R)-6-oxo-N-(1-(4-(trifluoromethyl)phenyl)ethyl)-1,6-dihydropyrimidine-4-carboxamide], the values for the Ki on Rhesus PDE2A3 (setting [1]) and at human PDE2A1 (setting [2]) were 410 nM and 334 nM, respectively.

Turning to `Cc1nc(C(=O)NC(C)(C)c2ccc(OC(F)(F)F)c(F)c2)cc(=O)[nH]1` [Example 48, N-{1-[3-fluoro-4-(trifluoromethoxy)phenyl]-1-methylethyl}-2-methyl-6-oxo-1,6-dihydropyrimidine-4-carboxamide], the Ki turned out to be 235 nM on Rhesus PDE2A3 (setting [1]), 127 nM on human PDE2A1 (setting [2]) and 80 nM on human PDE2A1 (setting [4]).

For `CC[C@@H](NC(=O)c1cc(=O)[nH]c(-c2ccccc2)n1)c1ccc(SC(F)(F)F)c(F)c1` [Example 385, N-[(1R)-1-{3-fluoro-4-[(trifluoromethyl)sulfanyl]phenyl}pro-pyl]-6-oxo-2-phenyl-1,6-dihydropyrimidine-4-carboxamide], the Ki at Rhesus PDE2A3 (setting [3]) came to 7 nM; at human PDE2A1 (setting [4]), 4.4 nM.

On to `O=C(NC1(c2ccc(SC(F)(F)F)cc2)CCC1)c1cc(=O)[nH]c(C2CC2)n1` [Example 204, 2-cyclopropyl-6-oxo-N-(1-{4-[(trifluoromethyl)sulfanyl]phenyl}cyclobutyl)-1,6-dihydropyrimidine-4-carboxamide], for which the inhibitory constant (Ki) at Rhesus PDE2A3 (setting [1]) was 37 nM; at human PDE2A1 (setting [2]), 20 nM.
